Assay results reported in US20150157634A1, “METHODS OF TREATING AND PREVENTING ALLOANTIBODY DRIVEN CHRONIC GRAFT VERSUS HOST DISEASE” (PHARMACYCLICS, INC., priority 2013, published 2015).

Tests used:
[1] = system: C57BL/6→B10.BR cGVHD model; assay: Pulmonary immunoglobulin deposition (anti-mouse Ig FITC immunofluorescence of lung sections); assay type: in vivo; conditions: day 60 post-HSCT
Text: (§1) FIG. 4 exemplifies germinal center reactions and pulmonary immunoglobulin deposition are therapeutically abated with administration of ibrutinib. A) Germinal centers were imaged by staining 6 um spleen sections with PNA conjugated to rhodamine. B) Splenocytes were purified from transplanted mice on day 60 and frequency of germinal center B cells were quantified. C) 6 μm lung sections from day 60 transplanted mice were stained with anti-mouse Ig conjugated to FITC. D) quantified with Adobe Photoshop CS3.
(§2) Therapeutic allo-HSCT model: The C57BL/6→B10.BR model has been described previously (Srinivasan, M. et al. Blood 119, 1570-1580 (2012)). In brief, B10.BR recipients conditioned with 120 mg/kg/day I.P. cyclophosphamide (Cy) on days −3 and −2 and 8.3 Gy TBI (using a ^137Cesium irradiator) on day −1 were engrafted with 1×10^7 Thy1.2 depleted C57BL/6 derived bone marrow (BM) cells with (or without) 1×10^6 allogeneic splenocytes.
(§3) Therapeutic administration of ibrutinib via drinking water was conducted as previously described (Dubovsky 2013). Mice received a dose equivalent to 15 mg/Kg/day in 0.4% methylcellulose by intraperitoneal injection starting day 28 post-transplant for the C57BL/6→B10.BR model. Cyclosporine A was administered I.P. in 0.2% CMC at 10 mg/kg/day starting at day 25 for 2-weeks followed by 3× weekly (Blazar, B. R. et al. Blood 92, 3949-3959 (1998)).

[2] = Weekly body weight of cGVHD mice; assay type: in vivo, mouse; conditions: BM, BM+S vehicle and BM+S ibrutinib groups; FIG. 3
Protocol: FIG. 3 exemplifies body weight of cGVHD mice in C57BL/6→B10.BR model. Bodyweight measurements for bone marrow (BM) non-cGVHD mice, BM+splenocyte (S) engrafted cGVHD irrelevant vehicle treated mice, or Ibrutinib treated BM+S engrafted mice.
as §2, §3

[3] = system: C57BL/6→B10.BR cGVHD model; assay: Masson trichrome staining of pulmonary collagen deposition / fibrosis in cGVHD model; assay type: in vivo, mouse
Protocol: as §2, §3
Masson Trichrome staining: 6 μm cryosections were fixed for 5 minutes in acetone and stained with hematoxylin and eosin to determine pathology and with the Masson's trichrome staining kit (Sigma) for detection of collagen deposition. Histopathology scores were assigned as described (Blazar, B. R. et al. Blood 92, 3949-3959 (1998)). Collagen deposition was quantified on trichrome stained sections as a ratio of area of blue staining to area of total staining using the Adobe Photoshop CS3 analysis tool.

[4] = system: C57BL/6→B10.BR cGVHD model; assay: Overall survival of cGVHD mice (Kaplan Meier); assay type: in vivo, mouse; conditions: ibrutinib cohort; FIG. 2
Protocol: FIG. 2 exemplifies survival of cGVHD mice in C57BL/6→B10.BR model. Kaplan Meier plot of overall survival for bone marrow (BM) non-cGVHD mice, BM+splenocyte (S) engrafted cGVHD irrelevant vehicle treated mice, or Ibrutinib treated BM+S engrafted mice.
as §2, §3

[5] = system: C57BL/6→B10.BR cGVHD model; assay: Germinal center detection in spleen (PNA staining, flow cytometry of GC B-cells); assay type: in vivo, mouse
Text: as §1, §2
as §3, with “(1998)). […]” for “(1998)).”

[6] = system: C57BL/6→B10.BR cGVHD model; assay: Pulmonary function tests (PFTs) at day 60 in therapeutic allo-HSCT cGVHD/bronchiolitis obliterans model; assay type: in vivo, mouse
Protocol: To determine whether ibrutinib could reverse established cGVHD, a murine model of alloantibody driven multi-organ system cGVHD including bronchiolar obliterans (BO) (MHC disparate, C57BL/6→B10.BR) was utilized.
as §2, §3
Pulmonary function tests: Pulmonary function tests (PFTs) were performed on anesthetized mice using whole-body plehysmography with the Flexivent system (SCIREQ).

For C=CC(=O)N1CCC[C@@H](n2nc(-c3ccc(Oc4ccccc4)cc3)c3c(N)ncnc32)C1 [ibrutinib, (R)-1-(3-(4-amino-3-(4-phenoxyphenyl)-1H-pyrazolo[3,4-d]pyrimidin-1-yl)piperidin-1-yl)prop-2-en-1-one], the “pulmonary deposition of allo-Ig (immunofluorescent microscopy)” value ([1]; FIG. 4C) was “limited pulmonary deposition of allo-Ig”, the “quantified immunofluorescent signal of pulmonary Ig deposition” value ([1]; p<0.001, FIG. 4D) was “significant and complete ablation of pulmonary Ig deposition” and the “mouse bodyweight, weekly evaluation” value [2] was “little variation between groups”. For the same compound, the “peribronchiolar collagen fibrosis, Masson Trichrome staining of inflated pulmonary tissues” value ([3]; 4 mice from 3 experiments, representative images, FIG. 1D) was “less peribroncheolar collagen fibrosis”, the “lung and liver fibrosis (summary statement)” value ([3]; C57BL/6→B10.BR cGVHD model) was “reversed lung and liver fibrosis” and the “quantified trichrome staining (pulmonary fibrosis, ratio of blue area to total area)” value ([3]; p<0.0001, FIG. 1E) was “ameliorates pulmonary fibrosis caused by cGVHD”. For the same compound, the survival [4] was 100%, the “GC reactions within the spleen (peanut agglutinin staining)” value ([5]; compared to vehicle treated mice with active cGVHD, FIG. 4A) was “reduced the overall size, cellularity, and number of GC reactions” and the “CD19+GL7+CD38lo germinal center B-cells within the spleen (flow cytometry)” value ([5]; day 60 post-HSCT, 8 mice per group, p=0.0222, FIG. 4B) was “significantly inhibited the cGVHD-induced formation germinal center B-cells”. The “pulmonary function (summary statement)” value ([6]; C57BL/6→B10.BR cGVHD model) was “restored pulmonary function”, the “development of BO as measured by pulmonary elastance” value ([6]; ibrutinib 15 mg/Kg/day from day 28 post-transplant, PFT day 60, p=0.0019, FIG. 1B) was “curtailed the development of BO in vivo” and the “development of BO as measured by pulmonary compliance” value ([6]; ibrutinib 15 mg/Kg/day from day 28 post-transplant, PFT day 60, p=0.0071, FIG. 1C) was “curtailed the development of BO in vivo”. For the same compound, the “development of BO as measured by pulmonary resistance” value ([6]; ibrutinib 15 mg/Kg/day from day 28 post-transplant, PFT day 60, p=0.0090, FIG. 1A) was “curtailed the development of BO in vivo”.
